Values after ≈ are worked out from the molar mass of the structure shown. Square brackets hold non-standard residues; d marks the D form. Ends that are not written are not given here. Peptide text beside a SMILES is read from it. dOrn = NCCC[C@@H](N)C(=O)O; Orn = NCCC[C@H](N)C(=O)O

One data set has as its system S. flexneri. To be noted: 24 h. The text has this: Purified horse red blood cells were acquired from Thermo Fisher Scientific (Hampshire, England). Human serum was purchased from Sigma (St Louis, USA). E. coli was obtained from the Coli Genetic Stock Center (BW25113). S. flexneri (ATCC 29903), A. baumannii (ATCC 15308), Pseudomonas sp. (ATCC 15915), and S. enterica (ATCC 14028) were obtained from the CECT (Valencia, Spain). Clinical strains were supplied by the Vall d’Hebron Hospital (Barcelona, Spain). MRC5 fibroblasts were obtained from the Cytometry and Cell Culture Facility (SCAC, UAB) and originally purchased from ATCC.
The antibiotic activity was defined by the minimum peptide concentration where the microorganism is unable to grow. The assay was done in polypropylene 96-well plates (Greiner, Frickenhausen, Germany) to avoid peptide binding to plate wells. Peptides were dissolved in water containing 0.4% w/v bovine serum albumin (BSA) and 0.02% v/v glacial acetic acid to prevent self-aggregation, following the reference protocol by Wiegand et al.,[42] based on the classical microtiter broth dilution recommended by the […]. Initial bacteria inoculum was adjusted to 5 × 10^5 CFU/mL in Mueller-Hinton (MH) medium. Incubations were kept at 37 °C for 24 h. Results are the average of three independent studies. MIC assays in the presence of serum were performed by incubating the peptide with human serum at a 1:1 ratio. Then, 10^6 cfu/mL of Pseudomonas sp. were incubated with serial dilutions of the peptides for 4 h. To determine the MBC, 50 μL from all wells were seeded into Petri plates and incubated for 24 h. The MBC concentration was attributed to the lowest concentration without detectable bacterial growth for each peptide.

The test system of another data set is Acinetobacter baumannii. In kind it is cell-based. Particulars: 50 μL from MIC wells seeded into Petri plates, 24 h; lowest concentration without detectable growth. As for the experimental part: (§1) Incubations were kept at 37 °C for 24 h. Results are the average of three independent studies.
The next data set deals with Salmonella enterica. In kind it is cell-based. To be noted: 24 h. Here is the method: as §1
Another data set deals with Escherichia coli. In kind it is cell-based. To be noted: 24 h. As for the experimental part: as §1
Data set [1] in a line: Cytotoxicity in mammalian cells (MTT assay). Particulars: MRC-5 cytotoxicity (IC50). The data set is classed as cell-based. Here is the method:
(§2) MRC-5 cells were grown in Eagle’s minimum essential medium (MEMα), supplemented with 10% fetal bovine serum (FBS). 96-well plates were seeded with 3 × 10^4 cells/well and cultured overnight in order to get cells adhered into the plate and then incubated with two-fold peptide serial dilutions. After 4 h of incubation, the medium containing the peptides was replaced by MEMα supplemented with FBS and 3-(4,5-dimethylthiazol-2-yl)-2,5-diphenyltetrazolium bromide (MTT) at 0.4 mg/mL and incubated for 150 min. Detection of formazan crystals in the living cells was done by cell disruption by addition of 200 μL of dimethyl sulfoxide (DMSO) followed by absorbance measuring at 600 nm in a Tecan Infinite F Nano+ microplate reader (Tecan, Germany). Results are the average of three independent studies.
Background: Tetrazolium dyes change colour on reduction, which living cells bring about.

For the next data set, the system named is A. baumannii. The data set is classed as cell-based, Acinetobacter baumannii. To be noted: A. baumannii ATCC 15308; Mueller-Hinton medium, 5 × 10^5 CFU/mL, 37 °C, 24 h; average of three independent studies. Here is the method: (§3) Human serum was purchased from Sigma (St Louis, USA).
as §1

Data set [2] concerns Pseudomonas sp. Nature of the data set: Minimum bactericidal concentration (MBC). In kind it is cell-based. To be noted: 50 μL from MIC wells seeded into Petri plates, 24 h; lowest concentration without detectable growth. Here is the method:
as §1

The test system of a further data set is horse red blood cells. Nature of the data set: Hemolytic activity. The data set is classed as cell-based. Particulars: red cells of horse, 4 h. As for the experimental part:
The peptide toxicity was determined detecting the disruption of horse red blood cells, following a previous assay report.[35] 10-fold diluted cells in PBS were centrifuged three times at 800g to eliminate the hemoglobin from disrupted cells. After the last resuspension, erythrocytes were incubated with the peptides for 4 h at 37 °C. The detection was done measuring the supernatant absorbance in a VICTOR3 multilabel plate reader (Perkin Elmer, Waltham, Massachusetts) at 540 nm in a microplate reader. Percentage of hemolysis was calculated through a pattern done with dilutions of total cell lysis done with a 1% Triton X-100 buffer. Results are the average of three independent studies.

The next data set concerns E. coli. In kind it is cell-based, Escherichia coli. Particulars: 24 h. Here is the method: as §3, §1
For data set [3], the system named is Pseudomonas sp. In words: MIC, broth microdilution. In kind it is cell-based. Particulars: Pseudomonas sp. ATCC 15915; Mueller-Hinton medium, 5 × 10^5 CFU/mL, 37 °C, 24 h; average of three independent studies. Here is the method: as §3, §1
(In broth dilution the organism is exposed to a series of concentrations in liquid medium.)

For data set [4], the system named is Pseudomonas sp. Nature of the data set: MIC of peptides incubated with human serum. The data set is classed as cell-based. Particulars: peptide incubated with human serum 1:1; 10^6 cfu/mL Pseudomonas sp., 4 h. As for the experimental part:
as §1

In the next data set the test system is P. aeruginosa 827632. Nature of the data set: MIC, clinical bacterial strain. The data set is classed as cell-based. As for the experimental part:
as §3, §1

For another data set, the system named is S. typhimurium 324. Nature of the data set: MIC, clinical bacterial strain. The data set is classed as cell-based. As for the experimental part:
as §3, §1

For a further data set, the system named is A. baumannii 3878. In words: MIC, clinical bacterial strain. In kind it is cell-based. As for the experimental part: as §3, §1
A further data set deals with A. baumannii 3879. In words: MIC, clinical bacterial strain. In kind it is cell-based. Here is the method: as §3, §1
A further data set relates to E. coli 116878. Nature of the data set: MIC, clinical bacterial strain. In kind it is cell-based. Here is the method:
as §3, §1

In the next data set the test system is A. baumannii 3862. Nature of the data set: MIC, clinical bacterial strain. The data set is classed as cell-based. Here is the method: as §3, §1
The test system of the next data set is P. aeruginosa 827651. Nature of the data set: MIC, clinical bacterial strain. The data set is classed as cell-based. As for the experimental part:
as §3, §1

In the next data set the test system is E. coli cf073. In words: MIC, clinical bacterial strain. The data set is classed as cell-based. As for the experimental part:
as §3, §1

A further data set has as its system S. typhimurium 365. Nature of the data set: MIC, clinical bacterial strain. In kind it is cell-based. As for the experimental part: as §3, §1
The next data set relates to A. baumannii 3880. Nature of the data set: MIC, clinical bacterial strain. The data set is classed as cell-based. Here is the method:
as §3, §1

The next data set deals with Shigella flexneri. To be noted: 50 μL from MIC wells seeded into Petri plates, 24 h; lowest concentration without detectable growth.
A further data set relates to S. enterica. In kind it is cell-based, Salmonella enterica. Particulars: 24 h. As for the experimental part: as §3, §1
The test system of another data set is MRC-5 cells. Nature of the data set: Cytotoxicity in mammalian cells (MTT assay). In kind it is cell-based. Particulars: 4 h. As for the experimental part:
as §2

Procedure for Shigella flexneri: The antibiotic activity was defined by the minimum peptide concentration where the microorganism is unable to grow. The assay was done in polypropylene 96-well plates (Greiner, Frickenhausen, Germany) to avoid peptide binding to plate wells. Peptides were dissolved in water containing 0.4% w/v bovine serum albumin (BSA) and 0.02% v/v glacial acetic acid to prevent self-aggregation, following the reference protocol by Wiegand et al.,[42] based on the classical microtiter broth dilution recommended by the National Committee of Laboratory Safety and Standards (NCLSS). Initial bacteria inoculum was adjusted to 5 × 10^5 CFU/mL in Mueller-Hinton (MH) medium. Incubations were kept at 37 °C for 24 h. Results are the average of three independent studies. […] To determine the MBC, 50 μL from all wells were seeded into Petri plates and incubated for 24 h. The MBC concentration was attributed to the lowest concentration without detectable bacterial growth for each peptide.

As a reminder, the IC50 is the concentration that inhibits the measured activity by half. Lower therefore signals greater potency. Turning to “RPFTRAQWFAIQHISPRTIAMRAINNYRWR-NH2 [peptide 1, hECP30]”, the “MIC S. flexneri” value in the data set with S. flexneri turned out to be 3.13 µM. In addition, in the data set with Acinetobacter baumannii, the “MBC Acinetobacter baumannii” value is 1.56 µM. Moreover, the “MBC Salmonella enterica” value against Salmonella enterica was 12.5 µM. Besides, the “MBC Escherichia coli” value in the data set on Escherichia coli stood at 1.56 µM. For the same compound, inhibition in data set [1] was half-maximal at 23 ± 4 µM (IC50). In addition, the “MIC A. baumannii” value in the data set with A. baumannii came out at 1.56 µM. Moreover, the “MBC Pseudomonas sp.” value in the data set on Pseudomonas sp. [2] was found to be 1.56 µM. The “hemolytic activity at 10-fold the MIC” value in the data set on horse red blood cells is given as “below 10%”. Further, the “MIC E. coli” value in the data set with E. coli worked out at 1.56 µM. Also, the “MIC Pseudomonas sp.” value with Pseudomonas sp. [3] was found to be 1.56 µM. The “MIC in Pseudomonas sp., peptides incubated with human serum” value in the data set with Pseudomonas sp. [4] is listed as 25 µM. Besides, the “MIC P. aeruginosa 827632” value with P. aeruginosa 827632 was found to be 12.5 µM. The “MIC S. typhimurium 324” value in the data set with S. typhimurium 324 came to 6.25 µM. Also, the “MIC A. baumannii 3878” value against A. baumannii 3878 amounted to 1.56 µM. The “MIC A. baumannii 3879” value with A. baumannii 3879 came out at 1.56 µM. Besides, the “MIC E. coli 116878” value against E. coli 116878 was determined as 6.25 µM. Besides, in the data set on A. baumannii 3862, the “MIC A. baumannii 3862” value was 0.78 µM. Besides, the “MIC P. aeruginosa 827651” value against P. aeruginosa 827651 is 25 µM. In addition, the “MIC E. coli cf073” value against E. coli cf073 stood at 3.13 µM. The “MIC S. typhimurium 365” value with S. typhimurium 365 was 6.25 µM. The “MIC A. baumannii 3880” value in the data set with A. baumannii 3880 amounted to 1.56 µM. In addition, the “MBC Shigella flexneri” value against Shigella flexneri came out at 3.13 µM. Moreover, the “MIC S. enterica” value against S. enterica was determined as 12.5 µM.

As for `CC[C@H](C)[C@H](NC(=O)[C@H](C)NC(=O)[C@H](CCCN)NC(=O)[C@H](CCSC)NC(=O)[C@H](C)NC(=O)[C@@H](NC(=O)[C@@H](NC(=O)[C@H](CCCN)NC(=O)[C@@H]1CCCN1C(=O)[C@H](CO)NC(=O)[C@@H](NC(=O)[C@H](Cc1c[nH]cn1)NC(=O)[C@H](CCC(N)=O)NC(=O)[C@@H](NC(=O)[C@H](C)NC(=O)[C@H](Cc1ccccc1)NC(=O)[C@H](Cc1c[nH]c2ccccc12)NC(=O)[C@H](CCC(N)=O)NC(=O)[C@H](C)NC(=O)[C@H](CCCN)NC(=O)[C@@H](NC(=O)[C@H](Cc1ccccc1)NC(=O)[C@H]1CCCN1C(=O)[C@H](N)CCCN)[C@@H](C)O)[C@@H](C)CC)[C@@H](C)CC)[C@@H](C)O)[C@@H](C)CC)C(=O)N[C@@H](CC(N)=O)C(=O)N[C@@H](CC(N)=O)C(=O)N[C@@H](Cc1ccc(O)cc1)C(=O)N[C@@H](CCCN)C(=O)N[C@@H](Cc1c[nH]c2ccccc12)C(=O)N[C@@H](CCCN)C(N)=O` [peptide 7] (H-[dOrn][dP]FT[Orn]AQWFAIQHISP[Orn]TIAM[Orn]AINNY[Orn]W[Orn]-NH2), the “MIC S. flexneri” value in the data set on S. flexneri was determined as 6.25 µM (≈ 21.9 µg/mL). Further, in the data set on Acinetobacter baumannii, the “MBC Acinetobacter baumannii” value is 6.25 µM (≈ 21.9 µg/mL). For the same compound, the “MBC Salmonella enterica” value in the data set on Salmonella enterica amounted to 25 µM (≈ 87.6 µg/mL). In the data set with Escherichia coli, the “MBC Escherichia coli” value was determined as 3.13 µM (≈ 11 µg/mL). The IC50 in data set [1] is no more than 230 µM; in the data set on MRC-5 cells, 170 ± 20 µM. The “MIC A. baumannii” value against A. baumannii came out at 6.25 µM (≈ 21.9 µg/mL). The “MBC Pseudomonas sp.” value against Pseudomonas sp. [2] is reported as 1.56 µM (≈ 5.47 µg/mL). Further, in the data set with horse red blood cells (250), the “hemolysis % (250 μM peptide)” value is 3.6 ± 0.7%. In the data set on E. coli, the “MIC E. coli” value turned out to be 3.13 µM (≈ 11 µg/mL). Further, the “MIC Pseudomonas sp.” value in the data set with Pseudomonas sp. [3] worked out at 1.56 µM (≈ 5.47 µg/mL). Further, the “MIC P. aeruginosa 827632” value against P. aeruginosa 827632 is 25 µM (≈ 87.6 µg/mL). Also, in the data set on S. typhimurium 324, the “MIC S. typhimurium 324” value came to 25 µM (≈ 87.6 µg/mL). In the data set on A. baumannii 3878, the “MIC A. baumannii 3878” value came out at 0.78 µM (≈ 2.73 µg/mL). For the same compound, the “MIC A. baumannii 3879” value against A. baumannii 3879 stood at 1.56 µM (≈ 5.47 µg/mL). Moreover, the “MIC E. coli 116878” value in the data set on E. coli 116878 came to 6.25 µM (≈ 21.9 µg/mL). For the same compound, in the data set with A. baumannii 3862, the “MIC A. baumannii 3862” value stood at 0.78 µM (≈ 2.73 µg/mL). Also, the “MIC P. aeruginosa 827651” value against P. aeruginosa 827651 was 100 µM (≈ 351 µg/mL). Moreover, the “MIC E. coli cf073” value in the data set on E. coli cf073 came to 3.13 µM (≈ 11 µg/mL). In addition, the “MIC S. typhimurium 365” value in the data set with S. typhimurium 365 stood at 25 µM (≈ 87.6 µg/mL). Further, the “MIC A. baumannii 3880” value with A. baumannii 3880 was 6.25 µM (≈ 21.9 µg/mL). Moreover, the “MBC Shigella flexneri” value in the data set on Shigella flexneri is 6.25 µM (≈ 21.9 µg/mL). In the data set with S. enterica, the “MIC S. enterica” value was 25 µM (≈ 87.6 µg/mL).

(Values after PMC8483441 (Journal of Medicinal Chemistry, 2021).)
